Experimental data as given in article PMC4741889, “Ligand-based chemoinformatic discovery of a novel small molecule inhibitor targeting CDC25 dual specificity phosphatases and displaying in vitro efficacy against melanoma cells” (Oncotarget, 2015).

How the values were obtained:
A2058 cells = experiment: Mitochondrial membrane potential (R123), A2058 cells; assay type: cell-based, human; conditions: A2058, 100 μM, 24 h up to 72 h
Method: Mitochondria represent the primary source of ROS, as well the target of ROS action, and therefore, compound 7 could affect their functionality in melanoma cells. […] Proteins belonging to the B-cell lymphoma-2 (Bcl-2) family are involved in the modulation of the mitochondrial functionality. Therefore, we have evaluated the levels of the anti-apoptotic protein Bcl-2, as well as that of the pro-apoptotic Bcl-2-associated X protein (Bax), after incubation with 7 (Figure 10B). […] To further investigate the occurrence of a mitochondrial-mediated apoptosis induced by 7, the caspase-9 activity was assayed. […] The effect of compound 7 was investigated also in SAN cells and the overall results were similar to those observed in A2058 (Supplementary Figure S6).
Mitochondrial membrane potential was evaluated by measuring the incorporation of the fluorescent probe R123, essentially as previously described. Briefly, cells were seeded into 6-well-plates (3 × 10^5 cells/well) for 24 h at 37°C, and then incubated at 37°C for 1 h in the presence of 5 μM R123, washed twice with PBS, and placed in medium containing 100 μM compound 7 or 0.5% DMSO. […] The fluorescence of cell-associated R123 was detected in the above-mentioned fluorescence spectrophotometer, using excitation and emission wavelengths of 490 and 520 nm, respectively; both excitation and emission slits were set at 10 nm.

CDC25A = target: T1, CDC25A (Homo sapiens, UniProt P30304); experiment: Ki from OMFP hydrolysis kinetics (Lineweaver-Burk), CDC25A; assay type: biochemical; conditions: 20 nM CDC25A, 1–25 μM OMFP; mean ± S.E.; read-out: Ki CDC25A
T1 construct: Recombinant forms of the catalytic domains of CDC25A, -B and -C were obtained through the vectors pET28a-CDC25A-cd, pET28a-CDC25B-cd and pET28a-CDC25C-cd; made in house
T1 sequence (P30304 376-482 limits assumed): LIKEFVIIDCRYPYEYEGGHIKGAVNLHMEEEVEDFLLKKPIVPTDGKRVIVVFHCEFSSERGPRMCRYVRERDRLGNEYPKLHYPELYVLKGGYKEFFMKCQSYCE
Method: To measure the inhibition constant (Ki) of the recombinant forms of CDC25A, -B and -C towards the various inhibitors, the affinity of the different forms of CDC25 towards OMFP was measured either in the absence or in the presence of fixed concentrations of the various inhibitors. The reaction mixture contained 20 nM CDC25A, or 10 nM CDC25B, or 40 nM CDC25C, and different concentrations of the various inhibitors in 500 μL final volume of 20 mM Tris-HCl, pH 7.8, 1 mM DTT. DMSO was used as vehicle control. […] The corresponding Lineweaver-Burk plots allowed the calculation of the KM for OMFP and of the Vmax of OMFP hydrolysis, expressed as a.u./minmax. […] The Ki values were obtained from the decrease of a.u./minmax in the presence of the inhibitor, according to the equation a.u./mimmax’ = a.u./mimmax/{1 + ([I]/Ki)}, where a.u./mimmax’ represents the Vmax measured in the presence of the concentration [I] of the inhibitor. The Ki values were obtained from at least three independent experiments and reported as mean ± S.E.

caspase-3 activity = experiment: Caspase-3 enzymatic activity in A2058 cells; assay type: cell-based, human; conditions: A2058, 100 μM
From the text: (§1) PI incorporation followed by flow cytometric analysis was used to detect the effect of 7 on the number of nuclei with a sub-diploid content, a typical hallmark of apoptosis. A time-dependent increase of apoptosis was evident in both A2058 and SAN cells and in particular, the effect of 7 on cell death program was already evident after 24-h treatment (Figure 7). […] To further investigate on the capacity of 7 to induce apoptosis, the enzymatic activity of caspase-3, the final effector of apoptotic program, was monitored.
To estimate caspase-3 and caspase-9 activity during the treatment with compound 7, the respective enzymatic activities were measured by using caspase-3 and -9 fluorimetric assay kits, according to the manufacturer's protocol, essentially as previously described. Briefly, cells were seeded into 75 cm^2 plates (2 × 10^6 cells/plate) for 24 h at 37°C and then treated with 100 μM 7 or 0.5% DMSO. At the end of each incubation, cells were collected, washed with PBS, and finally lysed at 4°C in the cell lysis buffer. Cell lysates were incubated with 50 μM DEVD-AFC or LEHD-AFC substrates at 37°C for 2 h, to detect caspase-3 or caspase-9 activity, respectively, using a Cary Eclipse fluorescence spectrophotometer (Varian). Excitation and emission wavelengths were set at 400 nm and 505 nm, respectively; both excitation and emission slits were set at 10 nm.

SAN cells = experiment: Apoptosis, subdiploid DNA content by PI flow cytometry, SAN cells; assay type: cell-based, human
From the text: as §1
[…] After each treatment, cells were harvested with trypsin, centrifuged and the pellet was resuspended in phosphate-buffered saline (PBS). For cell cycle analysis, cells were fixed with 70% (v/v) cold ethanol and stored at −20°C for 1 h. Then, cells were washed with cold PBS, centrifuged and the pellets were resuspended in 200 μL of a non-lysis solution containing 50 μg/mL PI. For the evaluation of apoptosis, cells were not fixed in ethanol and directly resuspended in 200 μL of a hypotonic lysis solution containing 50 μg/mL PI. After incubation at 4°C for 30 min, cells were analyzed with a FACScan flow cytometer (Becton Dickinson) for evaluating the distribution in cell cycle phases or the presence of nuclei with a DNA content lower than the diploid.

CDC25C protein levels = experiment: Western blotting of CDC25C protein levels in A2058 cells; assay type: cell-based, human; conditions: A2058, 100 μM, from 4 h up to 16 h
Method: To better investigate the effect of this inhibitor at the molecular level, we evaluated if the treatment of A2058 cells with 7 affected also the protein levels of the three CDC25 forms. […] On the other hand, the protein levels of CDC25B were unaffected by treatment of A2058 cells with 7 up to 16 h.
A2058 cells were seeded into 6-well-plates (3 × 10^5 cells/plate) for 24 h at 37°C and then treated at different times with 100 μM compound 7 or 0.5% DMSO. After treatment, cells were harvested, washed with PBS and then lysed in ice-cold modified radio immunoprecipitation assay (RIPA) buffer (50 mM Tris-HCl, pH 7.4, 150 mM NaCl, 1% Nonidet P-40, 0.25% sodium deoxycholate, 1 mM Na3VO4 and 1 mM NaF), supplemented with protease inhibitors and incubated for 30 min on ice. The supernatant obtained after centrifugation at 12,000 rpm for 30 min at 4°C constituted the total protein extract. The protein concentration was determined by the method of Bradford, using bovine serum albumin (BSA) as standard. Equal amounts of total protein extracts were used for Western blot analysis. […] Membranes were then analysed by an enhanced chemiluminescence reaction, using Super Signal West Pico kit (Pierce) according to manufacturer's instruction; signals were visualized by autoradiography.

- Ki (CDC25A): 0.65 ± 0.04 µM
SMILES: O=C(O)C1CCCCC1c1c2ccc(=O)cc-2oc2cc(O)ccc12 (stereo not shown) [Compound 7, 2-(6-hydroxy-3-oxo-3H-xanthen-9-yl)cyclohexanecarboxylic acid]
- mitochondrial membrane potential (R123 fluorescence) (A2058 cells): reduction of the mitochondrial membrane potential
- caspase-3 enzymatic activity (caspase-3 activity): significant increase of the enzymatic activity of caspase-3
- level of apoptosis caused by 7 in the presence of Z-VAD-FMK (SAN cells; 100 μM 7 + 100 μM Z-VAD-FMK, 48 h): significantly decreased
- apoptosis (nuclei with sub-diploid content) (SAN cells; 100 μM, 24-72 h): increase of apoptosis was significant even at 24-h treatment
- apoptosis after NAC pre-treatment (SAN cells; NAC pre-treatment, 100 μM 7, 48 h): in a great part reverted
- CDC25C protein levels (CDC25C protein levels): progressive and significant reduction of CDC25C protein levels
